Measurements published in patent US8618082B2, “Lupeol anti-tumor agent and uses thereof” (Wisconsin Alumni Research Foundation, priority 2004, dated 2013).

Legend:
Akt = assay: TPA-induced phosphorylation of Akt at Thr308 (western blot); format: in vivo, mouse; details: TPA, 6 h post treatment
Method: (§1) FIG. 5. Inhibitory effect of Lupeol on TPA-induced activation of PI3K and phosphorylation of Akt in CD-1 mice: At different times after treatment, the animals were sacrificed, epidermal protein lysate was prepared, and PI3K and phosphorylated (Thr^308) Akt and total Akt protein expression were determined. The immunoblots shown here are representative of three independent experiments with similar results. The values above each lane indicate relative density of the band normalized to β-actin.
(§2) The animals were shaved on the dorsal side of the skin, divided into four groups and treated topically on the shaved area with either 0.4 ml vehicle (acetone), or TPA (3.2 nmol/0.4 ml acetone/animal, v/v), or Lupeol (1 or 2 mg/0.2 ml acetone/animal, w/v) followed 30 min later with TPA (3.2 nmol/0.2 ml acetone/animal). Animals were sacrificed at different times point i.e. 6, 12, 24 and 48 h post TPA treatment. […]
(§3) Epidermis from the whole skin was separated as described earlier (Katiyar et al., 1999) and was homogenized in ice-cold lysis buffer [50 mM Tris-HCl, 150 mM NaCl, 1 mM EGTA, 1 mM EDTA, 20 mM NaF, 100 mM Na3VO4, 0.5% NP-40, 1% Triton X-100, 1 mM PMSF (pH 7.4)] with freshly added protease inhibitor cocktail, Protease Inhibitor Cocktail Set III (Calbiochem, La Jolla, Calif., USA). […] The protein content in the lysates was measured by DC BioRad assay (BioRad Laboratories, Hercules, Calif.) as per the manufacturer's protocol.
(§4) For western blot analysis, 40 μg of the protein was resolved over 8-12% polyacrylamide gels and transferred to a nitrocellulose membrane. […] This was followed by incubation with anti-mouse or anti-rabbit secondary antibody horse-radish peroxidase (Amersham Life Sciences, Inc., USA) for 1 h and then washed several times and detected by chemiluminescence ECL kit, (Amersham Life Sciences, Inc., USA) and autoradiography using XAR-5 film obtained from Eastman Kodak Co. (Rochester, N.Y., USA). […]

epidermal COX-2 protein = assay: TPA-induced epidermal COX-2 protein expression (western blot); format: in vivo, mouse; details: TPA topical, 6 h post treatment
Method: (§5) FIG. 4. Inhibitory effect of Lupeol on TPA-induced epidermal ODC, iNOS and COX-2 protein expression in CD-1 mice: At different times after treatment, the animals were sacrificed, epidermal protein lysate was prepared, and ODC and COX-2 protein expression were determined. Equal loading of protein was confirmed by stripping the immunoblot and reprobing it for β-actin. The immunoblots shown here are representative of three independent experiments with similar results. The values above each lane indicate relative density of the band normalized to β-actin.
(§6) The animals were shaved on the dorsal side of the skin, divided into four groups and treated topically on the shaved area with either 0.4 ml vehicle (acetone), or TPA (3.2 nmol/0.4 ml acetone/animal, v/v), or Lupeol (1 or 2 mg/0.2 ml acetone/animal, w/v) followed 30 min later with TPA (3.2 nmol/0.2 ml acetone/animal). Animals were sacrificed at different times point i.e. 6, 12, 24 and 48 h post TPA treatment. The epidermis was separated from the whole skin and homogenized in 0.1 M Tris-HCl buffer (pH 7.2) using a Polytron tissue homogenizer (Brinkmann Instruments, Westbury, N.Y., USA) at 100,000×g supernatant, and microsomal fractions were prepared as described earlier (Katiyar and Mukhtar, 1997). The sample of 6 h treatment group was used to assess the ODC activity as this time point has previously been shown for optimal induction of the enzyme (Katiyar er al., 1996).
as §3, with “USA). The homogenate was then centrifuged at 14,000×g for 25 minutes at 4° C. and the supernatant (total cell lysate) was collected, aliquoted and stored at −80° C. For the preparation of nuclear lysate, 0.2 g of the epidermis was homogenized in 1 ml of ice-cold phosphate-buffered saline (pH 7.6) and centrifuged at 12,000×g for 5 min at 4° C.” for “USA).”
as §4

IKKα protein = assay: TPA-induced activation of IKKα (western blot); format: in vivo, mouse; details: TPA topical
Method: FIG. 6. Inhibitory effect of Lupeol on TPA-induced activation of IKKα, and phosphorylation and degradation of IκBα in CD-1 mice: At different times after treatment, the animals were sacrificed, epidermal cytosolic was prepared, and protein expression was determined. Equal loading was confirmed by stripping the immunoblot and reprobing it for β-actin. The immunoblots shown here are representative of three independent experiments with similar results. The values above each lane indicate relative density of the band normalized to β-actin.
The animals were shaved on the dorsal side of the skin, divided into four groups and treated topically on the shaved area with either 0.4 ml vehicle (acetone), or TPA (3.2 nmol/0.4 ml acetone/animal, v/v), or Lupeol (1 or 2 mg/0.2 ml acetone/animal, w/v) followed 30 min later with TPA (3.2 nmol/0.2 ml acetone/animal). […]
Epidermis from the whole skin was separated as described earlier (Katiyar et al., 1999) and was homogenized in ice-cold lysis buffer [50 mM Tris-HCl, 150 mM NaCl, 1 mM EGTA, 1 mM EDTA, 20 mM NaF, 100 mM Na3VO4, 0.5% NP-40, 1% Triton X-100, 1 mM PMSF (pH 7.4)] with freshly added protease inhibitor cocktail, Protease Inhibitor Cocktail Set III (Calbiochem, La Jolla, Calif., USA). […] The protein content in the lysates was measured by DC BioRad assay (BioRad Laboratories, Hercules, Calif.) as per the manufacturer's protocol. […]

epidermal ODC protein = assay: TPA-induced epidermal ODC protein expression (western blot); format: in vivo, mouse; details: TPA topical
Method: as §5, §2, §3, §4

epidermal iNOS protein = assay: TPA-induced epidermal iNOS protein expression (western blot); format: in vivo, mouse; details: TPA alone topical
Method: as §5, §2, §3, §4

CD-1 mouse skin = assay: TPA-induced cutaneous edema, skin punch weight; format: in vivo; details: TPA alone, 3.2 nmole/mouse topical
Method: Studies from the inventors' laboratory and by other have shown that TPA application to mouse skin results in cutaneous edema (Katiyar et at, 1996; Liang et at, 2002). In the present study, the inventors evaluated the protective effects of topical application of Lupeol in TPA-mediated cutaneous edema in CD-1 mouse. The inventors tested four doses 0.25, 0.5, 1 and 2 mg of Lupeol per animal in the inventors' preliminary studies. […] The CD-1 mice were topically treated with Lupeol (1 and 2 mg/mouse) and 30 min later were topically treated with TPA (3.2 nmole/mouse). […] At least four determinations were made at different dorsal skin sites per mouse in each group. The data represents the mean±SE of eight mice (*p<0.01 vs TPA).
as §6
To assess the inhibitory effect of pre-application of Lupeol on TPA-induced edema, 1 cm-diameter punches of skin from vehicle-, Lupeol-, TPA- or Lupeol- and TPA-treated mice were removed, made free of fat pads, and weighed immediately. After drying for 24 h at 50° C., the skin punches were reweighed, and the loss of water content was determined. The difference in the amount of water gain between the control (vehicle treated) and TPA treated represented the extent of edema induced by TPA, whereas that between the control vehicle and Lupeol plus TPA represented the inhibitory effect of Lupeol. For the hyperplasia study, skin was removed, fixed in 10% formalin, and embedded in paraffin. Vertical sections (5 μm) were cut, mounted on a glass slide, and stained with hematoxylin and eosin.

[1] = tested on: catalytic (p110) and regulatory (p85) subunit of PI3K; assay: TPA-induced epidermal PI3K expression (western blot); format: in vivo, mouse
Method: as §1, §6
as §3, with “USA). The homogenate was then centrifuged at 14,000×g for 25 minutes at 4° C. and the supernatant (total cell lysate) was collected, aliquoted and stored at −80° C. For the preparation of nuclear lysate, 0.2 g of the epidermis was homogenized in 1 ml of ice-cold phosphate-buffered saline (pH 7.6) and centrifuged at 12,000×g for 5 min at 4° C.” for “USA).”
as §4

SMILES: CCCCCCCCCCCCCC(=O)O[C@@H]1[C@@H](C)[C@@]2(O)[C@@H](C=C(CO)C[C@]3(O)C(=O)C(C)=C[C@@H]23)[C@@H]2C(C)(C)[C@]12OC(C)=O [TPA, 12-O-tetradecanoyl-phorbol acetate, reference compound]
- maximum phosphorylation of Akt (Akt): 3.8 fold
- maximum increase in epidermal COX-2 protein expression vs acetone control (epidermal COX-2 protein): 2.7 fold
- increase in the expression of IKKα protein (IKKα protein): 5.5 fold
- increase in epidermal ODC protein level vs acetone treated control (epidermal ODC protein): 4 fold
- increase in iNOS protein expression vs vehicle treated controls (epidermal iNOS protein): 5 fold
- Skin punch weight 24 hrs (CD-1 mouse skin): 23.5 ± 0.5 mg/cm2
- Skin punch weight 48 hrs (CD-1 mouse skin): 25.5 ± 0.75 mg/cm2
- increase in expression of catalytic (p110) and regulatory (p85) subunit of PI3K ([1]; TPA topical): 2 to 3 fold
- induction in the expression of catalytic subunit p110 ([1]; TPA, 6 h post treatment): 3 fold
